# Assay results from US12673041B2, “4-aminobut-2-enamide derivatives and salt thereof” (TAIHO PHARMACEUTICAL CO., LTD., priority 2019, dated 2026).
# Like-named read-outs stand apart in the source and are kept apart here.
# Legend:
# [1] = target: T1, GMPPNP-bound KRAS G12C protein and cRAF RAS-binding domain (cRAF-RBD) (Homo sapiens, UniProt P01116, G12C); assay: Inhibitory activity on interaction between KRAS G12C and cRAF (Alpha technology); type: biochemical; conditions: GMPPNP-bound KRAS G12C incubated with compound at 25° C. for 1 hour, then cRAF-RBD, Alpha signal; read-out: IC50
# T1 construct: made in house; host or cells: E. coli
# Outline: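 GMPPNP-loaded His-KRAS G12C (aa 1-169) preincubated 1 h at 25 °C with compound (pH 7.5 Tris, 1 mM MgCl2, TCEP, Tween 20), then cRAF-RBD (aa 50-132) and Alpha reagents added for 1.5 h at RT. Inhibition scaled between DMSO (0%) and GDP-bound KRAS (100%); IC50 by curve fitting.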
# [2] = target: T2, activated KRAS in NCI-H358 (Homo sapiens, UniProt P01116, G12C); assay: Amount of activated KRAS on KRAS-G12C mutant cell line NCI-H358 (Ras GTPase Chemi ELISA); type: cell-based; conditions: for IC50: 1 hour with compound
# T2 construct: host or cells: NCI-H358
# Description: NCI-H358 [H358, H358] (ATCC® CRL5807™), which is a KRAS-G12C mutant human lung cancer cell line, and MIA PaCa-2 (ATCC® CRL-1420™), which is a KRAS-G12C mutant human pancreas cancer cell line, were suspended in a 10% fetal bovine serum-containing RPMI1640 medium (manufactured by Thermo Fischer SCIENTIFIC), respectively. The cell suspension was seeded into a cell culture plate and cultured in an incubator containing 5% CO2 gas at 37° C. for 1 day. The lyophilized recombinant human EGF protein (R&D systems, Cat #: 236-EG-200) was dissolved in PBS to make 0.5 mg/ml solution. […] Then, the compounds obtained in the “Preparation of Compounds” section were used as test compounds and were dissolved in DMSO, and each test compound was diluted with DMSO to give a concentration 200 times the final concentration. The solution of the test compound in DMSO was diluted with the medium used for suspending cells and added to each well of the cell-culture plate to give a DMSO final concentration of 0.5%, followed by culture in an incubator containing 5% CO2 gas at 37° C. for another 1 hour. The amount of activated KRAS after 1 hour culture in the presence of the compound was measured using Ras GTPase Chemi ELISA Kit (manufactured by Active Motif). The ratio of KRAS activity was calculated from the following equation, and the concentration of the test compound at which activity was suppressed to 50% (IC50 (μM)) was determined. […] The Ratio of KRAS activity to control (%)=(T−BG)/(C−BG)×100 • T: the emission intensity in a well into which a test compound was added. • C: the emission intensity in a well into which a test compound was not added. • BG: the emission intensity in a well into which neither a test compound nor a cell suspension was added.
# MIA PaCa-2 cells = assay: Growth inhibition activity on KRAS-G12C mutant cell line (MIA PaCa-2); type: cell-based; conditions: Homo sapiens, 72 h; MIA PaCa-2, 3-day culture, CellTiter-Glo 3D
# Outline: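 KRAS-G12C human pancreatic MIA PaCa-2 cells in RPMI1640 + 10% FBS, seeded in U-bottom plates and grown 1 day, then exposed to compound (0.2% DMSO final) for 3 days at 37 °C, 5% CO2. Viability by CellTiter-Glo 3D luminescence; IC50 from inhibition relative to untreated wells.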
# [3] = NCI-H358, with EGF 100 ng/ml, read-out: IC50 NCI-H358 with EGF
# [4] = NCI-H358, without EGF, read-out: IC50 NCI-H358 without EGF
# T1 sequence (P01116 with tags, fused parts or gaps isoform P01116-2 G12C): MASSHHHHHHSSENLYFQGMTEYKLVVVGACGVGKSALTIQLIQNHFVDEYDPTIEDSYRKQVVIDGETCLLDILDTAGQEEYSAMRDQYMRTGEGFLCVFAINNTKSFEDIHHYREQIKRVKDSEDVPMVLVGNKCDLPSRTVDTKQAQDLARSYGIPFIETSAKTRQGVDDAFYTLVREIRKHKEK
# T2 sequence (P01116 1-188 isoform P01116-2 G12C): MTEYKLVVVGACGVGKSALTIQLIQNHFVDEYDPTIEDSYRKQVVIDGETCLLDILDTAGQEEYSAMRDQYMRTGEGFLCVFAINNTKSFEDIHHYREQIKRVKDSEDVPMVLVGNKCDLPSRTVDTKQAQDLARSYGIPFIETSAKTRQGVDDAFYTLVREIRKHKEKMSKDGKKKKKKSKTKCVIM
IC50 [1],"IC50 [2, 3]","IC50 [2, 4]",IC50 (MIA PaCa-2 cells),SMILES,"KRAS inhibition activity under EGF treatment ([2]; NCI-H358, EGF treatment)"
180 nM,850 nM,750 nM,,"CCc1nc2cc(-c3cccc(NC(=O)c4ccc(NC(=O)/C=C/CN[C@H]5CC[C@H](OC)CC5)c(C#N)c4)c3)c(C(F)(F)F)cc2n1C [Example 1, 3-cyano-N-(3-(2-ethyl-1-methyl-6-(trifluoromethyl)-1H-benzo[d]imidazol-5-yl)phenyl)-4-((E)-4-(((1r, 4r)-4-methoxycyclohexyl)amino)but-2-enamido)benzamide]",
23 nM,470 nM,390 nM,140 nM,"CO[C@H]1CC[C@H](NC/C=C/C(=O)Nc2ccc(C(=O)c3ccc4c(-c5cc6ncn(C)c6cc5C)cccn34)cc2C#N)CC1 [Example 4, (E)-N-(2-cyano-4-(8-(1,6-dimethyl-1H-benzo[d]imidazol-5-yl)indolizine-3-carbonyl)phenyl)-4-(((1r,4r)-4-methoxycyclohexyl)amino)but-2-enamide]",

SMILES,IC50 [1],"IC50 [2, 3]","IC50 [2, 4]",IC50 (MIA PaCa-2 cells),"KRAS inhibition activity under EGF treatment ([2]; NCI-H358, EGF treatment)"
"C=CC(=O)N1CCN(c2ncnc3c(F)c(-c4c(O)cccc4F)c(Cl)cc23)CC1 [ARS-1620, reference compound]",> 67000 nM,5400 nM,1400 nM,,attenuated by EGF treatment
